Measurements: patent US20230000940A1, “Composition for prevention or treatment of Porcine epidemic diarrhea virus infection comprising curcuminoid and licorice extracts or fraction thereof” (KOREA RESEARCH INSTITUTE OF BIOSCIENCE AND BIOTECHNOLOGY, priority 2019, published 2023)

What was measured:
[1] = system: nucleoprotein (N protein) of the PED coronavirus; conditions: 10 μM, vs virus-infected group
Description: To investigate the target protein expression inhibitory effect of the complex on the nucleoprotein (N protein) of the PED coronavirus, Vero cells were infected with 0.001 MOI of PED coronavirus for 1 hour.

[2] = system: IL-8; test: Inhibitory effect on IL-8 in PED coronavirus-infected Vero cells; format: cell-based; conditions: 10 μM, vs virus-infected group
Description: To investigate the inhibitory effect of the complex on IL-8, which is a pro-inflammatory cytokine involved in promoting inflammation, virus infection was performed in the same manner as in Example 2-1, followed by treatment with the complex.

[3] = system: IL-6; test: Inhibitory effect on IL-6 in PED coronavirus-infected Vero cells; format: cell-based; conditions: 10 μM, vs virus-infected group
Description: To investigate the inhibitory effect of the complex on IL-6, which is a pro-inflammatory cytokine involved in promoting inflammation, virus infection was performed in the same manner as in Example 2-1, followed by treatment with the complex.

[4] = system: TNF-α; test: Inhibitory effect on TNF-α in PED coronavirus-infected Vero cells; format: cell-based; conditions: 10 μM, vs virus-infected group
Description: To investigate the inhibitory effect of the complex on TNF-α, which is a pro-inflammatory cytokine involved in promoting inflammation, virus infection was performed in the same manner as in Example 2-1, followed by treatment with the complex.

[5] = system: PED coronavirus; conditions: component alone; statement without data; cited from earlier work

Row | SMILES | nucleoprotein synthesis inhibition (inhibitory effect) [1] [fold] | inhibitory effect on IL-8 [2] [fold] | inhibitory effect on IL-6 [3] [fold] | inhibitory effect on TNF-α [4] [fold] | inhibitory effect against PED coronavirus [5]
1 | O=c1cnn([C@@H]2O[C@H](CO)[C@@H](O)[C@H]2O)c(=O)[nH]1 [6-azauridine] | 6.8 | 25.4 | 5.8 | 3.8 | 
2 | COc1cc(/C=C/C(=O)/C=C(O)/C=C/c2ccc(O)c(OC)c2)ccc1O [curcumin] |  |  |  |  | no inhibitory effect
